Laboratory results: patent publication US12686668B2, “Leukotriene synthesis inhibitors” (Naegis Pharmaceuticals Inc., priority 2019, dated 2026)

What was measured:
[1] = test system: LTC4 production in MC/9 cells; experiment: MC/9 HPLC assay, inhibition of LTC4 production; type: cell-based; conditions: Mus musculus; for inhibition at 3 µM: MC9, 3 μM, A23187 stimulated; for inhibition at 1 µM: MC9, Table 2 column 3, no concentration in head (1 μM according to b732), read-out: % Inhibition LTC4
Protocol: (§1) Cultured MC/9 cells (3×10^6 cells) in 1 mL HBSS were pre-incubated with a series of concentrations of compound solubilized in DMSO for 30 minutes. Production of leukotrienes were stimulated with the addition of 1 μM calcium ionophore (A23187), diluted from a 4 mM DMSO stock in HBSS, and incubated at room temperature for 20 minutes. The reaction was stopped with the addition of 500 μL of methanol containing 20 ng/mL prostaglandin B2 as an internal standard. Samples were collected and stored at −20° C. at least 2 hr or overnight before centrifuged at 13,000 rpm for 15 minutes and loaded onto C18 SEP-PAK columns (Canadian Lifesciences IS12000) for solid phase extraction. The leukotrienes were analyzed by HPLC using an ACE C18 column (4.5 mm×150 mm, 5 m) eluted with acetonitrile/methanol/water mixture with H3PO4, pH 3.5 (37:26:37) with a flow rate of 1.8 mL/min. The amount of LTB4 (Cayman Chemical, 20110) and LTC4 (Cayman Chemical, 20210) were calculated based on reference standards and the level of inhibition of LTB4 production induced by the test compounds was calculated relative to control samples. The results are provided in Table 2, where Compound No. refers to the compounds identified in Table 1.

[2] = test system: LTB4 production in MC/9 cells; experiment: MC/9 HPLC assay, inhibition of LTB4 production; type: cell-based; conditions: Mus musculus, MC9, Table 2 column 4, no concentration in head (1 μM according to b732), read-out: % Inhibition LTB4
Protocol: as §1

SMILES	inhibition at 3 µM [1]	inhibition at 1 µM [1]	inhibition at 1 µM [2]
COc1cc(CCC(=O)c2ccccc2)ccc1Oc1nc2ccccc2s1 [Compound 131, 3-[4-(1,3-benzothiazol-2-yloxy)-3-methoxyphenyl]-1-phenylpropan-1-one]	50 to 70%	–	–
COc1cc(CCC(O)(c2ccccc2)C(F)(F)F)ccc1Oc1nc2ccccc2s1 (centres unmarked) [Compound 133, 3-[4-(1,3-benzothiazol-2-yloxy)-3-methoxyphenyl]-1-(trifluoromethyl)-1-phenylpropan-1-ol]	–	< 10%	30 to 50%
CCC(CCc1ccc(Oc2nc3ccccc3s2)c(OC)c1)N1CCOCC1 (centres unmarked) [Compound 136, 4-{1-[3-methoxy-4-(1,3-benzothiazol-2-yloxy)phenyl]pentan-3-yl}morpholine]	10 to 30%	–	–
CC(c1ccc(Oc2nc3ccccc3s2)cc1)N1CCCC1 (centres unmarked) [Compound 162, 2-{4-[1-(pyrrolidin-1-yl)ethyl]phenoxy}-1,3-benzothiazole]	< 10%	–	–
COc1cc(CCC(c2ccccc2)N2CCCC2)ccc1Oc1nc2ccccc2s1 (centres unmarked) [Compound 134, 2-{2-methoxyl-4-[3-phenyl-3-(pyrrolidin-1-yl)propyl]phenoxy}-1,3-benzothiazole]	–	10 to 30%	10 to 30%
CC(O)(CCc1ccc(Oc2nc3ccccc3s2)cc1)c1ccccc1 (centres unmarked) [Compound 144, 4-[4-(1,3-benzothiazol-2-yloxy)phenyl]-2-phenylbutan-2-ol]	–	10 to 30%	> 90%
COc1cc(CCC(C)=O)ccc1Oc1nc2ccccc2s1 [Compound 110, 4-[4-(1,3-benzothiazol-2-yloxy)-3-methoxyphenyl]butan-2-one]	–	< 10%	< 10%
Cc1nc2ccc(Oc3ccc(C(C)(O)C(F)(F)F)cc3)cc2s1 (centres unmarked) [Compound 170, 1,1,1-trifluoro-2-{4-[(2-methyl-1,3-benzothiazol-6-yl)oxy]phenyl}propan-2-ol]	> 90%	–	–
Cc1nc2ccc(Oc3ccc(C(C)O)cc3)cc2s1 (centres unmarked) [Compound 171, 1-{4-[(2-methyl-1,3-benzothiazol-6-yl)oxy]phenyl}ethanol]	70 to 90%	–	–
CCC(C)(O)CCc1ccc(Oc2nc3ccccc3s2)cc1 (centres unmarked) [Compound 143, 1-[4-(1,3-benzothiazol-2-yloxy)phenyl]-3-methylpentan-3-ol]	–	10 to 30%	> 90%
CCC(O)CCc1ccc(Oc2nc3ccccc3s2)c(OC)c1 (centres unmarked) [Compound 196, 1-[4-(1,3-benzothiazol-2-yloxy)-3-methoxyphenyl]pentan-3-ol]	> 90%	–	–
COc1cc(CCC(C)(C)O)ccc1Oc1nc2ccccc2s1 [Compound 124, 4-[4-(1,3-benzothiazol-2-yloxy)-3-methoxyphenyl]-2-methylbutan-2-ol]	–	10 to 30%	–
COc1cc(CCC(C)(O)C(F)(F)F)ccc1Oc1nc2ccccc2s1 (centres unmarked) [Compound 111, 4-[4-(1,3-benzothiazol-2-yloxy)-3-methoxyphenyl]-1,1,1-trifluoro-2-methylbutan-2-ol]	70 to 90%	–	–
CCNC(c1ccc(Oc2nc3ccccc3s2)cc1)C(F)(F)F (centres unmarked) [Compound 168, 1-[4-(1,3-benzothiazol-2-yloxy)phenyl]-N-ethyl-2,2,2-trifluoroethanamine]	< 10%	–	–
CC(=O)c1ccc(Oc2nc3ccccc3s2)cc1 [Compound 159, 1-[4-(1,3-benzothiazol-2-yloxy)phenyl]ethanone]	10 to 30%	–	–
CCOc1cc(CCC(=O)CC)ccc1Oc1nc2ccccc2s1 [Compound 120, 1-[4-(1,3-benzothiazol-2-yloxy)-3-ethoxyphenyl]-pentan-3-one]	70 to 90%	–	–
CC(=O)CCc1ccc(OCc2ccc3ccccc3n2)cc1 [Compound 189, 4-{4-[(quinolinyl-2-yl)methoxy]phenyl}butan-2-one]	70 to 90%	–	–
CCC(C)(O)c1ccc(Oc2nc3ccccc3s2)cc1 (centres unmarked) [Compound 161, 2-[4-(1,3-benzothiazol-2-yloxy)phenyl]butan-2-ol]	< 10%	–	–
